Values quoted from earlier work in patent publication US20220409549A1, “ORAL PRODUCT TABLET AND METHOD OF MANUFACTURE” (NICOVENTURES TRADING LIMITED, priority 2021, published 2022).
Like-named read-outs stand apart in the source and are kept apart here.

Legend:
[1] = for solubility: fats, alcohols, water
[2] = for logP: organic acids of Table 1, octanol and water
[3] = converts via isomerization into trans-bixin

CC(/C=C/C=C(C)/C=C/C(=O)O)=C\C=C\C=C(C)\C=C\C=C(C)\C=C\C(=O)O (stereo in doubt) [norbixin, (2E,4E,6E,8E,10E,12E,14E,16E,18E)-4,8,13,17-tetramethylicosa-2,4,6,8,10,12,14,16,18-nonaenedioic acid]
solubility [1]: water soluble

C=C(C)[C@@H]1CCC(C)=C[C@H]1c1c(O)cc(CCCCC)cc1O [CBD, cannabidiol, reference compound]
solubility in an aqueous environment (e.g., saliva) [1]: insoluble | logP value ([2]; CBD): about 6.5

COC(=O)/C=C/C(C)=C\C=C\C(C)=C\C=C\C=C(C)\C=C\C=C(C)\C=C\C(=O)O [bixin]
solubility [1]: soluble in fats and alcohols but insoluble in water | chemical stability when isolated [3]: chemically unstable

CC(C)[C@@H]1CC[C@@H](C)C[C@H]1OC(=O)CCC(=O)O [monomenthyl succinate]
logP [2]: 3

CN1CCCC1c1cccnc1 (centres unmarked) [nicotine, reference compound]
partitioning into octanol ([2]; acidic pH values, about 6.5 to about 4, protonated form): lower partitioning into octanol | partitioning into octanol ([2]; alkaline pH values, about 7.5 to about 9, free base form): high partitioning into octanol

ethyl benzoic acid
logP [2]: 2.9

isopropyl benzoic acid
logP [2]: 3.5

tocopherol succinate
logP [2]: 10.2
